Measurements from patent US10414734B2, “5-hydroxyalkylbenzimidazoles as mIDH1 inhibitors” (BAYER PHARMA AKTIENGESELLSCHAFT, priority 2015, dated 2019).
pIC50: −log10 of the molar value.

Experiments:
[1] = system: LN229 R132H cells overexpressing mutated isocitrate dehydrogenase (mIDH); assay: Mutant IDH1 cellular assay (2-HG in medium); format: cell-based; conditions: 2-HG in medium after 24 hours, fluorescence readout
Experimental: Mutant IDH1 Cellular Assay
Levels of (2R)-2-hydroxyglutarate (2HG) were measured in medium of a cell line with overexpression of mutated isocitrate dehydrogenase (mIDH) protein. mIDH catalyzes the NADPH-dependent reduction of alpha-ketoglutarate to 2-HG. Cells (LN229 R132H, Mohrenz et al., Apoptosis (2013) 18:1416-1425) were grown in DMEM containing 10% FCS. They were harvested by trypsin and seeded into 96-well plates. Cells were incubated overnight at 37° C. in 5% CO2. The next day test compounds were added to each cell well. The final concentration of DMSO was 0.1% and DMSO controls were included. The plates were then placed in an incubator for 24 hours.
2-HG was measured according to Balss et al. (Acta Neuropathol (2012) 124: 883-891). Briefly, perchloric acid was added to each well and the plates were centrifuged. Aliquots are removed and incubated with hydroxyglutarate dehydrogenase (HGDH), diaphorase, NAD+, and resazurin. The conversion of resazurin to resorufin was detected by fluorescence spectroscopy at Ex 540 nm Em 600 nm. The increase in fluorescence is proportional to 2-HG production. IC50 values are determined by interpolation from plots of relative fluorescence vs inhibitor concentration.

IDH1 R132H enzyme = IDH1 R132H enzyme (Homo sapiens (Human), UniProt O75874, R132H); assay: Mutant IDH1 R132H biochemical assay; conditions: luminescent NADPH consumption readout; 1.5 nM enzyme, 1 μM NADPH, 250 μM α-KG, 30 min, 32° C.
Experimental: Mutant IDH1 R132H Biochemical Assay
mIDH1 catalyzes the NADPH-dependent reduction of alpha-ketoglutarate (α-KG) to (2R)-2-hydroxyglutarate (2-HG). NADPH consumption was measured by luminescent readout.
The biochemical reactions were performed at 32° C. in 384-well plates using a reaction volume of 41 μL and the following assay buffer conditions: 50 mM Tris pH 7.5, 100 mM NaCl, 20 mM MgCl2, 0.05% BSA, 0.01% Brij, 1 μM NADPH, and 250 μM α-KG. The IDH1 R132H enzyme was used in a final concentration of 1.5 nM. Test compounds were used in a concentration range between 0.002 and 10 μM. The final DMSO concentration was 2.4%.
The reaction was incubated for 30 minutes, then 40 μL of detection mix (0.75 μg/ml Luciferase, 0.02 U/ml Oxidoreductase, 4 μg/mL FMN, 2 μL/ml decanal/ethanol, 50 mM Tris pH 7.5, 0.5% Glycerin, 0.01% Tween-20, 0.05% BSA) was added. Luminescence was measured on a luminescent reader (10 seconds measuring time, 1 second integration period, 30% sensitivity). The decrease in luminescence is proportional to mIDH1 activity. IC50 values are determined by interpolation from plots of relative luminescence versus inhibitor concentration.

Chain of IDH1 R132H enzyme (O75874 whole entry R132H): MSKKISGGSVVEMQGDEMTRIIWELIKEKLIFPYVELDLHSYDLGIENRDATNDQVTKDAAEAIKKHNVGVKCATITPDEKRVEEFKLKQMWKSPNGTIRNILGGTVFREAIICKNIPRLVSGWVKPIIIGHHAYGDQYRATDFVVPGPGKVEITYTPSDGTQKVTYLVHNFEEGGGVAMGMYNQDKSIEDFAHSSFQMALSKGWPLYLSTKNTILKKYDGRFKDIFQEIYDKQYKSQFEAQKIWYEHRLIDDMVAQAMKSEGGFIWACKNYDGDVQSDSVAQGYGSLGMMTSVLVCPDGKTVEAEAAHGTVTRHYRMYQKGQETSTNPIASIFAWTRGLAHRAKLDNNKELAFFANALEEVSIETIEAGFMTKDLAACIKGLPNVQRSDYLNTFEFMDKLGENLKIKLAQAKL

COc1cc2c(cc1C(C)(C)O)nc(Nc1ccc(OC(F)(F)F)cc1)n2[C@H]1C[C@@H](C)CC(C)(C)C1 (single isomer, unassigned; enantiomer b) [Example 2-7-2, 2-(6-methoxy-2-{[4-(trifluoromethoxy)phenyl]amino}-1-[(cis)-3,3,5-trimethylcyclohexyl]-1H-benzimidazol-5-yl)propan-2-ol, enantiomer B]
pIC50 [1]: 7.05
pIC50 (IDH1 R132H enzyme): 7.70

COc1cc2c(cc1CO)nc(Nc1ccc(OC(F)(F)F)cc1)n2[C@H]1C[C@@H](C)CC(C)(C)C1 (single isomer, unassigned; enantiomer a) [Example 2-6-1, (6-methoxy-2-{[4-(trifluoromethoxy)phenyl]amino}-1-[(cis)-3,3,5-trimethylcyclohexyl]-1H-benzimidazol-5-yl)methanol, enantiomer A]
pIC50 [1]: 6.85
pIC50 (IDH1 R132H enzyme): 7.70

COc1cc2c(cc1CO)nc(Nc1ccc(OC(F)(F)F)cc1)n2[C@H]1C[C@@H](C)CC(C)(C)C1 (single isomer, unassigned; enantiomer b) [Example 2-6-2, (6-methoxy-2-{[4-(trifluoromethoxy)phenyl]amino}-1-[(cis)-3,3,5-trimethylcyclohexyl]-1H-benzimidazol-5-yl)methanol, enantiomer B]
pIC50 [1]: 6.20
pIC50 (IDH1 R132H enzyme): 6.96
